# Assay results: patent publication US20120171123A1, “USES AND COMPOSITIONS FOR TREATMENT OF RHEUMATOID ARTHRITIS” (priority 2006, published 2012)
# Values joined by “and” are separate entries in the source; they are usually repeats but may differ in a detail not shown here. Equal entries are not always repeated.
# Tests used:
# [1] = system: MTX-naïve adult patients with early RA (<3 years); experiment: Study J: escalation of injectable medicine from eow to weekly dosing; assay type: in vivo, human; settings: for ACR20 following dosage escalation, % of all patients in arm / ACR60 following dosage escalation, % of all patients in arm / ACR70 following dosage escalation, % of all patients in arm / DAS28 < 2.6 following dosage escalation, % of all patients in arm: patients with no prior ACR20 response, NRI; for ACR50, % of responders / ACR70, % of responders: patients whose dosages of adalimumab or placebo injections were escalated; for patients who increased injectable medication to weekly: during year 1 (placebo injections in MTX arm)
# Protocol: Study J was a 2-year, double-blind, active comparator-controlled, Phase III study. […] In patients receiving ADA+MTX or MTX monotherapy, the 7.5 mg MTX weekly dosage increased to 20 mg over 8 weeks, as tolerated and as needed. Monotherapy patients received either placebo pills (adalimumab arm) or placebo injections (MTX arm). Efficacy outcomes measured included ACR response, DAS28 remission, major clinical response, and radiographic change from baseline.
# MTX optimization was required before starting weekly injections (to 20 mg weekly, maximum). Once initiated, weekly dosing of injectable medicine was to be maintained until end of study. Criteria for identification of dosage escalators were a sequence of 4 consecutive injections for which the interval for every two consecutive injections was ≦10 days, and/or that the date of escalation, defined as the second of the 4 injections, had to be on or after Week 16 in Year 1. Three dosage escalator categories were defined, based on best ACR response rate achieved any time prior to escalation: Group A=ACR non-responders (never achieved ACR20 prior to dosage escalation), Group B=Partial responders (achieved ACR20 or ACR50 at least once prior to escalation, but never ACR70), and Group C=ACR70 responders (achieved ACR70 at least once prior to escalation). Data are from the intention-to-treat (ITT) population, with missing data analyzed by non-responder imputation (NRI) for clinical measures and by linear imputation for total Sharp scores (TSS).
# [2] = system: patients with long-standing RA who had inadequate responses to MTX; experiment: Study 1: ACR20/50/70 response; assay type: in vivo, human
# Protocol: (§1) Patients were grouped into three cohorts based on baseline CRP concentrations: low (<1 mg/dL); intermediate (1-4 mg/dL); and high (>4 mg/dL). Analyses were further conducted in two categories of patients according to their change in CRP concentrations at Week 12: those with a ≧20% decrease in CRP from baseline; or those with a <20% decrease in CRP from baseline. The following efficacy and radiographic measures were analyzed at Week 52 in the three baseline CRP categories and in the two Week 12 change in CRP categories: DAS28, ACR 20/50/70, Health assessment questionnaire (HAQ), and Total Sharp score (TSS).
# (§2) Two readers assessed X-rays performed at baseline (start of RCT), 1 year (end of RCT), and 3 years (post 2 years OLE). Changes from baseline in Total Sharp Score (TSS), Joint Erosions (JE), and Joint Space Narrowing (JSN) were calculated. ACR 20, 50, and 70 response rates, as well as TJC and SJC, were also measured.
# [3] = system: MTX-naïve adult patients with active, early RA (<3 years); experiment: Study J: subject disposition and withdrawals; settings: 2 years
# [4] = system: MTX-naïve adult patients with active, early RA (<3 years); experiment: Study J: individual clinical remission criteria (TJC=0, SJC=0, HAQ=0, morning stiffness=0); assay type: in vivo, human
# Protocol: A total of 799 patients were enrolled. Baseline demographics and clinical characteristics of the patients enrolled in this study are described in Example 7. Baseline demographics and clinical characteristics were similar among the 3 arms, i.e., ada+mtx, ada alone, or mtx alone. […] After 1 and 2 years of therapy, the percentages of patients with ACR90 responses, TJC=0, SJC=0, HAQ=0, morning stiffness=0 minutes, and normal CRP were determined. Data are from the intention-to-treat (ITT) population with imputation used for missing values. Results were compared with the percentages of patients who achieved DAS28<2.6 or a Major Clinical Response (MCR).
# [5] = system: MTX-naïve adult patients with active, early RA (<3 years); experiment: Study J: clinical remission by DAS28<2.6; assay type: in vivo, human
# Protocol: Clinical remission, defined as DAS28<2.6, is described below in Table 25.
# Secondary endpoints included DAS28<2.6 at year 1 and Major Clinical Response (MCR=ACR70 response for ≧6 continuous months during a 2-year period).
# At 1 and 2 years, the American College of Rheumatology (ACR) responses (ACR20, ACR50, and ACR70), the Disease Activity Score 28 (DAS28), and the change (Δ) in Total Sharp Score (TSS) were determined for all patients. Results were analyzed for the intention-to-treat (ITT) population using imputation for missing data. Clinical remission was defined as DAS28<2.6. The mean ΔTSS values at 1 year and 2 years (N=791) were determined for patients in each ACR response category (ACR20/50/70) and for patients with DAS28<2.6
# [6] = system: patients with long-standing RA who had inadequate responses to MTX; experiment: Study 1 (adalimumab + MTX vs placebo + MTX, 12-month RCT plus OLE): radiographic progression (TSS, JE, JSN); assay type: in vivo, human
# Protocol: The study design included a 12 month, double blind, randomized, placebo-controlled trial.
# as §1, §2
# [7] = 3 years, initially randomized to 40 mg eow
# [8] = week 52, baseline CRP 1-4 mg/dL
molecule,measurement,setting,value
"adalimumab: human anti-TNF mAb (HUMIRA, Abbott Laboratories), described in U.S. Pat. No. 6,090,382 as D2E7","ACR20 following dosage escalation, % of all patients in arm",[1]; 1 year,1.8%
same,"ACR60 following dosage escalation, % of all patients in arm",[1]; 1 year,1.6%
same,"ACR70 following dosage escalation, % of all patients in arm",[1]; 1 year,0 (0) %
same,"DAS28 < 2.6 following dosage escalation, % of all patients in arm",[1]; 1 year,0.4%
same,"No radiographic progression, % of patients","[1]; 2 years, eow dosing",48.8%
same,"ACR20 following dosage escalation, % of all patients in arm",[1]; 2 years,2.6%
same,"ACR60 following dosage escalation, % of all patients in arm",[1]; 2 years,0.4%
same,"ACR70 following dosage escalation, % of all patients in arm",[1]; 2 years,0.4%
same,"DAS28 < 2.6 following dosage escalation, % of all patients in arm",[1]; 2 years,0.4%
same,"No radiographic progression, % of patients","[1]; 2 years, weekly dosing",31.9%
same,"ACR50, % of responders",[1]; Year 1,17%
same,"ACR70, % of responders",[1]; Year 1,6%
same,"ACR50, % of responders",[1]; Year 2,16%
same,"ACR70, % of responders",[1]; Year 2,10%
same,patients who increased injectable medication to weekly,[1],25%
same,ACR20,[2]; month 12,69%
same,ACR50,[2]; month 12,48%
same,ACR70,[2]; month 12,26%
same,ACR20,[2]; month 24,63%
same,ACR50,[2]; month 24,43%
same,ACR70,[2]; month 24,28%
same,ACR20,[2]; month 36,58%
same,ACR50,[2]; month 36,42%
same,ACR70,[2]; month 36,24% and 23%
same,"withdrawn, reason lack of efficacy",[3],19%
same,HAQ = 0,[4]; 1 year,17 % patients
same,Morning Stiffness = 0,[4]; 1 year,32 % patients
same,SJC = 0,[4]; 1 year,16 % patients
same,TJC = 0,[4]; 1 year,18 % patients
same,AM (morning) stiffness = 0,[4]; 2 years,30 % of patients
same,HAQ = 0,[4]; 2 years,19 % of patients
same,SJC = 0,[4]; 2 years,19 % of patients
same,TJC = 0,[4]; 2 years,15 % of patients
same,"clinical remission, DAS28 < 2.6",[5]; week 52 (1 year),23 % of patients
same,"clinical remission, DAS28 < 2.6",[5]; week 104 (2 years),25 % of patients
same,"patients with radiographic improvement (change <−0.5 units), total sharp score",[6]; 3 years,28%
same,"patients with radiographic improvement, joint erosion score",[6]; 3 years,29%
same,"patients with radiographic improvement, joint space narrowing score",[6]; 3 years,20%
same,"patients with no radiographic progression, joint erosion score",[6]; [7],71%
same,"patients with no radiographic progression, joint space narrowing score",[6]; [7],73%
same,"patients with no radiographic progression, total sharp score",[6]; [7],62%
"CN(Cc1cnc2nc(N)nc(N)c2n1)c1ccc(C(=O)N[C@@H](CCC(=O)O)C(=O)O)cc1 [mtx alone, methotrexate]","ACR20 following dosage escalation, % of all patients in arm",[1]; 1 year,3.5%
same,"ACR70 following dosage escalation, % of all patients in arm",[1]; 1 year,0.8%
same,"DAS28 < 2.6 following dosage escalation, % of all patients in arm",[1]; 1 year,0.0%
same,"No radiographic progression, % of patients","[1]; 2 years, eow dosing",36.6%
same,"ACR20 following dosage escalation, % of all patients in arm",[1]; 2 years,3.6%
same,"ACR70 following dosage escalation, % of all patients in arm",[1]; 2 years,1.2%
same,"DAS28 < 2.6 following dosage escalation, % of all patients in arm",[1]; 2 years,0.8%
same,"No radiographic progression, % of patients","[1]; 2 years, weekly dosing",21.2%
same,"ACR50, % of responders",[1]; Year 1,17%
same,"ACR70, % of responders",[1]; Year 1,8%
same,"ACR50, % of responders",[1]; Year 2,21%
same,"ACR70, % of responders",[1]; Year 2,12%
same,patients who increased injectable medication to weekly,[1],20%
same,ACR20,[2]; [8],36 % responders
same,ACR50,[2]; [8],18 % responders
same,ACR70,[2]; [8],9 % responders
same,ACR20,"[2]; week 52, baseline CRP <1 mg/dL",30 % responders
same,ACR50,"[2]; week 52, baseline CRP <1 mg/dL",13 % responders
same,ACR70,"[2]; week 52, baseline CRP <1 mg/dL",6 % responders
same,ACR20,"[2]; week 52, baseline CRP >4 mg/dL",47 % responders
same,ACR50,"[2]; week 52, baseline CRP >4 mg/dL",0 % responders
same,ACR70,"[2]; week 52, baseline CRP >4 mg/dL",0 % responders
same,"withdrawn, reason AE",[3],8%
same,"withdrawn, reason lack of efficacy",[3],18%
same,HAQ = 0,[4]; 1 year,19 % patients
same,Morning Stiffness = 0,[4]; 1 year,31 % patients
same,SJC = 0,[4]; 1 year,17 % patients
same,TJC = 0,[4]; 1 year,14 % patients
same,AM (morning) stiffness = 0,[4]; 2 years,30 % of patients
same,HAQ = 0,[4]; 2 years,19 % of patients
same,SJC = 0,[4]; 2 years,19 % of patients
same,TJC = 0,[4]; 2 years,21 % of patients
same,"clinical remission, DAS28 < 2.6",[5]; week 52 (1 year),21 % of patients
same,"clinical remission, DAS28 < 2.6",[5]; week 104 (2 years),25 % of patients
same,Erosions mean change,[6]; [8],1.7
same,TSS mean change,"[6]; week 52, baseline CRP 1-4 mg/dL, listed as MTX",3.0
same,TSS mean change,"[6]; week 52, baseline CRP 1-4 mg/dL, listed as Mtx",3.25 (n = 54)
same,Erosions mean change,"[6]; week 52, baseline CRP <1 mg/dL",1.5
same,TSS mean change,"[6]; week 52, baseline CRP <1 mg/dL, listed as MTX",2.1
same,TSS mean change,"[6]; week 52, baseline CRP <1 mg/dL, listed as Mtx",1.8 (n = 71)
same,Erosions mean change,"[6]; week 52, baseline CRP >4 mg/dL",2.1
same,TSS mean change,"[6]; week 52, baseline CRP >4 mg/dL, listed as MTX",4.5
same,TSS mean change,"[6]; week 52, baseline CRP >4 mg/dL, listed as Mtx",4.23 (n = 15)
